Results published in patent publication US12636278B2, “HDAC6-inhibited human regulatory T cells” (H. LEE MOFFITT CANCER CENTER AND RESEARCH INSTITUTE, INC., priority 2020, dated 2026).
Entries after “also recorded” stand apart in the source; their conditions may differ.

Legend:
[1] = tested on: NSG mice with human skin xenograft; experiment: Human skin xenograft rejection model with adoptive transfer of pre-treated Tregs; type: in vivo; details: day +21; 5x10^4 nTregs expanded ex vivo with drug (tubastatin 1 μM, HDTK032 2.5 μM); no systemic drug; compared to PBMCs alone
Procedure: NSG mice received a 1 cm^2 split thickness human skin graft. After 30 days of rest to permit engraftment, 5×10^6 human PBMCs (allogeneic to the skin) were injected into the mice. A week prior to PBMC injection, Tregs from the PBMC donor were expanded with mature DCs from the skin donor (Treg:DC ratio 30:1) and cultured for 5-6 days in the presence of DMSO (<0.1%), tubastatin (1 μM), HDTK032 (2.5 μM). In coordination with the PBMC injection, recipient mice were also inoculated with CD25-bead purified, Tregs (5×10^4) expanded with DMSO, tubastatin, HDTK032. A control group received PBMCs alone. FIG. 3A contains representative contour plots showing the purity (>95% pure) of the injected Tregs (CD4^+, CD127^−, CD25^bright, Foxp3+) for each experimental condition. […] Pooled data from 3 independent experiments, with up to 9 mice per experimental group. […]
FIGS. 5A to 5D show pathogenic Th17 cells are decreased in the periphery among mice treated with HDAC6-inhibited human Tregs. […] Recipient spleens were harvested on day +21, stained for Th17s (CD4^+, IL-17^+) or Tregs (CD4^+, CD127^−, CD25^bright, Foxp3^+), and analyzed by flow cytometry. […]
FIGS. 6A to 6C show circulating human Th1 cells are reduced after adoptive transfer of HDAC6-inhibited Tregs. […] Recipient spleens were harvested on day +21, stained for Th1s (CD4^+, IFNγ^+) or Th2s (CD4^+, IL-4^+), and analyzed by flow cytometry. […]

[2] = tested on: T cell responders stimulated by allogeneic DCs; experiment: Suppression assay of pre-treated nTregs in mixed leukocyte reactions; type: cell-based, human; details: nTregs exposed to drug for 5 days; nTreg:T cell ratio 1:500 or 1:50; no drug in secondary culture; compared to DMSO-treated nTregs
Procedure: The suppressive capacity of DC-allostimulated thymic Tregs previously exposed to HDTK032, tubastatin, or DMSO was tested at different ratios of Treg to T cell responders stimulated by fresh allogeneic DCs (DC:responder T cell ratio of 1:30) in mixed leukocyte reactions. No additional drugs or DMSO were added to the medium. […] Data are from one representative experiment of 3 independent studies performed.
Next we investigated whether HDAC6 blockade impacted nTreg function. Purified nTregs were stimulated with allogeneic moDCs plus IL-2 while exposed to tubastatin, HDTK032, or DMSO for 5 days. The nTregs were harvested and cultured with autologous T cells (nTreg:T cell ratio 1:500 or 1:50) targeting fresh allogeneic moDCs. No additional drugs were added to the secondary cultures.

allo-specific nTregs = experiment: Limiting dilution assay (LDA), frequency of allo-specific nTregs after 12 days with allogeneic moDCs; type: cell-based, human; details: for mean fold expansion of allo-specific nTregs: 12 days with unrelated moDCs, compared to DMSO; for frequency of antigen-specific thymic Tregs: after 12 days of culture with allogeneic moDCs
Procedure: (§1) FIG. 1A show purified, human Tregs stimulated by allogeneic, monocyte-derived dendritic cells for 5-6 days, with HDTK032 or DMSO added once on day 0. The medium was also supplemented with IL-2 and IL-15. […] Proliferation was analyzed by Cell Trace Violet dilution among CD4^+, CD127^−, CD25^bright Tregs. […] FIG. 1C is a graph showing on-target alpha-tubulin acetylation of HDTK032 or DMSO treated Tregs. One representative experiment of 3 independent studies is shown. […] One representative donor Treg expansion of 4 independent experiments is shown. *P<0.05.
(§2) HDAC6-deficient mice are known to generate increased amounts of Tregs, both at stead-state in vivo and after polyclonal stimulation in vitro. However, such findings have never been translated to human immunity. Human nTregs (CD4^+, CD127^−, CD25+) were purified by magnetic bead isolation, stimulated with allogeneic moDCs, supplemented with IL-2, and treated with HDTK032, a selective and potent HDAC6 inhibitor, or DMSO (<0.01%) vehicle control once on day 0. After 5-6 days of culture, the nTregs were harvested and enumerated. […] Using the limiting dilution assay (LDA) we measured the precise frequency of allo-specific nTregs after stimulation with unrelated moDCs for 12 days. For these experiments, the HDAC6 inhibitors, HDTK032 and tubastatin, were compared against DMSO. Overall, the mean fold expansion was approximately 130-fold with either HDAC6 inhibitor compared to DMSO (FIG. 1D).

autologous T responders = experiment: Suppression assay of treated antigen-specific nTreg with 10:1 autologous T responders and allogeneic DCs; type: cell-based; details: 10:1 autologous T responders; proliferation measured on day +6; compared to DMSO
Description: Suppression assay of DMSO- or HDAC-treated, antigen-specific nTreg in culture with 10:1 autologous T responders and allogeneic DCs. Proliferation measured on day +6. […] PAN=Panobinostat, NEXT=Nexturastat-B, TUBA=Tubastatin. DMSO is vehicle control.

antigen-specific nTreg = experiment: Proliferation of antigen-specific nTreg with allogeneic DC, IL-2 and IL-15 (CPM, day +6); type: cell-based; details: drugs added once on day 0; CPM on day +6
Description: Purified nTreg+allogeneic dendritic cells (DC)+IL-2+IL-15. Drugs added once on day 0. Proliferation measured as CPM on day +6.

[3] = tested on: human nTregs (CD4+, CD127-, CD25+); experiment: Treg proliferation and expansion after stimulation with allogeneic moDCs, 5-6 days; type: cell-based; details: drug added once on day 0, compared to DMSO
Procedure: as §1
as §2, with “Overall, the mean fold expansion was approximately 130-fold with either HDAC6 inhibitor compared to DMSO (FIG. 1D).” left out

HDAC6 = experiment: On-target alpha-tubulin acetylation in treated nTregs; type: cell-based, human; details: compared to DMSO
Procedure: as §1
as §2, with “Overall, the mean fold expansion was approximately 130-fold with either HDAC6 inhibitor compared to DMSO (FIG. 1D).” left out

Structure (SMILES)	skin graft rejection [1]	suppressive potency of pre-treated nTregs [2]	mean fold expansion of allo-specific nTregs (allo-specific nTregs)	frequency of antigen-specific thymic Tregs (allo-specific nTregs)	suppressive function of nTreg (autologous T responders)	proliferation and expansion of antigen-specific nTreg (antigen-specific nTreg)	proliferative capacity of nTregs (CellTrace Violet dilution) ([3]; 5-6 days)	amount of nTregs ([3]; after 5-6 days of culture)	amount of acetylated α-tubulin (HDAC6)
CN1CCc2c(c3ccccc3n2Cc2ccc(C(=O)NO)cc2)C1 [Tubastatin A, reference compound]	significantly reduced	significantly more potent	approximately 130 fold	increase	significantly increase	significantly enhance	–	–	–
CCCCN(Cc1ccc(C(=O)NO)cc1)C(=O)Nc1ccc2cn[nH]c2c1 [Nexturastat-B, Nexturastat B]	–	–	–	–	significantly increase	–	–	–	–
O=C(NO)c1ccc2c(c1)OC[C@H](c1ccccc1)N(C(=O)C1CCOCC1)C2 [HDTK032, (3S)—N-hydroxy-4-(oxane-4-carbonyl)-3-phenyl-2,3,4,5-tetrahydro-1,4-benzoxazepine-8-carboxamide]	significantly reduced	significantly more potent	approximately 130 fold	increase	–	–	increased	significantly increased; also recorded: increases	increase
